Measurements taken from US20050136040A1, “Control of gene expression using a complex of an oligonucleotide and a regulatory peptide” (Imperial College Innovations Limited, priority 2001, published 2005).
[5FU] = 5-fluoro-deoxyuracil base

How the values were obtained:
[1] = test system: interferon stimulated response element (IRE) of the human 6-16 gene; assay: Interferon-induced EGFP expression by FACS in modified HT1080 cells (C8); format: cell-based; settings: for Interferon-induced GFP expression: +INF 300 units/ml for one day
Method: Cells habouring EGFP under the control of the interferon stimulated response element (ISRE) of the human 6-16 gene were transiently transfected with different compounds. Cells were then treated with 300 units/ml of IFN for one day and analysed by FACS for the GFP expression. • a) Parental cell line, no treatment • b) Cells expressing the stably transfected construct (C8), no treatment • c) C8 treated with interferon (+INF) • d) C8 transfected with 500 pm TFO, +INF • e) C8 specific TFO 1000 pM, +INF • f) C8, GeneICE1 500 pM, +INF • g) C8, GeneICE 2 500 pM, +INF • h) C8, unspecific control TFO 500 pM, +INF • i) C8, unspecific control TFO 1000 pM, +INF
These cells have a stably incorporated gene expressing EGFP under the control of the interferon stimulated response element (IRE) of the human 6-16 gene.
For the following data, cells were transiently transfected with different compounds using standard lipofectamine protocols. Cells were then treated with 300 units/ml of interferon (INF) for one day and analysed by FACS for the GFP expression.

[2] = test system: Prostate specific antigens (PSA) protein levels; assay: Total PSA in LNCap cell supernatants, chemiluminescent immunometric assay; format: cell-based, human; settings: LNCap supernatant, 3 days
Method: Cells were incubated in the presence of R1881 for 3 days. PSA levels in the supernatants were measure by ELISA. Each column represent total prostate specific antigen (PSA).
Therefore, using the protocols described in Example 8 ARP-L218 was transfected into LNCap cells (GET/LNC/W39/P6) with Lipofectamine 2000 (InVitrogen) with or without R1881 (Perkin Elmer), a synthetic androgen, for 3 days, after which the supernatant were harvested for quantitation of total PSA protein at the Pathology Centre, Hammersrnith Hospital, London, U.K.
PSA measurements were carried out by a chemiluminescent labelled immunometric assay using an automated immunoassay analyser (Abbott Architect Immunoassay Analyser).

PSA = assay: Secreted PSA by immunoassay in LnCap cells with or without R1881 (Example 2); format: cell-based, human; settings: LnCap control cells (no or irrelevant oligonucleotide-peptide fusion), 72 hours
Method: In an example, the prostate cancer cell line LnCap is treated with the oligonucleotide-peptide fusion comprising a MAD1 or Sap18 peptide as described in Example 1. Transfected cells are optionally identified and/or isolated (for example using a GFP marker and FACS techniques) and are assayed for androgen receptor gene expression as well as for the classic prostate cancer marker PSA. For example, GFP-positive, FACS sorted cells were cultured in the presence or absence of the AR agonist R1881. After 72 hours, culture media were collected and the amount of the androgen-regulated protein PSA determined by immunoassay. Addition of R1881 results in an approximately 25-fold increase in levels of secreted PSA in control cells (with no oligonucleotide-peptide fusion, or an irrelevant oligonucleotide-peptide fusion).

androgen receptor gene [3] = assay: RT-PCR of androgen receptor mRNA, LNCap cells treated with ARP-L218 and R1881; format: cell-based, human; settings: 3 days; for AR mRNA Percentage of control: vs PBS treated control
Method: (§1) RT-PCR analysis of androgen receptor mRNA. After ethidium bromide staining the quantity of electrophoresed amplicons was determined in arbitrary units using a Labworks image reader.
The effect of ARP-L218 on androgen receptor gene expression with and without a synthetic androgen (R1881) was measured using the protocol outlined in the above section.
ARP-L218 was prepared in phosphate buffer saline (PBS), 0.2 μm syringed filtered and used on day of test set-up. R1881 (synthetic androgen) was purchased from Perkin Elmer, Catalogue number NLP005005MG.
(§2) LNCap cells were transfected with ARP-L218 using lipofectamine2000 (cationic activated dendrimer, InVitrogen life technologies) with/without agonist. Various amounts of ARP-L218 were mixed with a fixed amount of lipofectamine2000 (3 μl) in a total volume of 100 μl serum free medium without antibiotics (OptiMEM). After 20 mins incubation at room temperature, the transfection mixture was added to cells at 70% confluency and cells were incubated for 3 days.
(§3) RNA was extracted and RT-PCR analysis of AR mRNA levels conducted as described above.

androgen receptor gene [4] = assay: RT-PCR of androgen receptor mRNA, LNCap cells treated with ARP-L218 and cyproterone acetate; format: cell-based, human; settings: 3 days
Method: as §1
ARP-L218 was prepared in phosphate buffer saline (PBS), 0.2 μm syringed filtered and used on day of test set-up.
as §2, with “antagonist.” for “agonist.”
as §3

## specific TFO: IRE TFO (5′) GGGUGGTGGGGTTGTGTT (3′), U = 5-fluro-deoxyuracil, without peptide (DNA, [5FU] at 4, backbone not given here)
[1]; 500 pM
  Interferon-induced GFP expression: 53%
[1]; 1000 pM
  Interferon-induced GFP expression: 63%
[1]; +INF, average over the conditions of Table 4
  average repression of INF induced GFP expression: 42%

## C[C@]1(O)CC[C@H]2[C@@H]3CCC4=CC(=O)CCC4=C3C=C[C@@]21C [R1881]
[2]
  effect on PSA levels (in words): show an increase in PSA levels
[2]; R1881 0.01 nM
  Total PSA: 372 ng/mL
[2]; R1881 100 nM
  Total PSA: 1980 ng/mL
PSA
  increase in levels of secreted PSA on addition of R1881: approximately 25 fold
Androgen receptor gene [3]
  androgen receptor gene expression levels (in words): can act to reduce AR gene expression
Androgen receptor gene [3]; R1881 0.01 nM
  AR Ratio/beta-actin: 0.237
  AR band quantitation: 2083
  AR band quantitation Average: 2083
  AR mRNA Percentage of control: 71.73%
Androgen receptor gene [3]; R1881 1 nM
  AR Ratio/beta-actin: 0.103
  AR band quantitation: 1471
  AR band quantitation Average: 1471
  AR mRNA Percentage of control: 31.29%
Androgen receptor gene [3]; R1881 100 nM
  AR Ratio/beta-actin: 0.116
  AR band quantitation: 1455
  AR band quantitation Average: 1455
  AR mRNA Percentage of control: 35.17%
Androgen receptor gene [3]; R1881 1 uM
  AR Ratio/beta-actin: 0.165
  AR band quantitation: 1388
  AR band quantitation Average: 1388
  AR mRNA Percentage of control: 49.92%

## CC(=O)O[C@]1(C(C)=O)CC[C@H]2[C@@H]3C=C(Cl)C4=CC(=O)[C@@H]5C[C@@H]5[C@]4(C)[C@H]3CC[C@@]21C [Cyproterone Acetate, Cyproterone acetate]
Androgen receptor gene [4]
  androgen receptor gene expression levels (in words): can act to reduce AR gene expression
Androgen receptor gene [4]; Cyproterone Acetate 0.1 nM
  AR band quantitation: 2357
  AR mRNA % of control: 54.0%
Androgen receptor gene [4]; Cyproterone Acetate 10 nM
  AR band quantitation: 2401
  AR mRNA % of control: 51.5%
Androgen receptor gene [4]; Cyproterone Acetate 1 uM
  AR band quantitation: 1868
  AR mRNA % of control: 47.8%
Androgen receptor gene [4]; Cyproterone Acetate 10 uM
  AR band quantitation: 1568
